Take `O=c1[nH]c2scnc2c2ccccc12`: the melting point is > 200 °C.

As to `CSc1ccc2c(c1)CN(C(C)C)S(=O)(=O)N2CCCl`, the melting point was 74 to 75 °C. For the compound `O=C(O)c1cccc(OCc2csc(-c3ccccc3)n2)c1`, the melting point was 155 to 157 °C.

Regarding `C#Cc1cccc(OCC2=CC=C(CO)SS2)c1`, the melting point is 70.5 to 71.5 °C.

Compound `COc1cc(C2C3=C(COC3=O)Nc3ccc4cc[nH]c4c32)cc(OC)c1OC` (stereo not drawn) returned a melting point of 299 to 301 °C. For the compound `CCCCCCCCCOC1CCC(=O)N1` (stereo not drawn), the melting point was 46 to 48 °C. The value for `c1cn(CCc2ccc3c(c2)-c2[nH]nc(-c4ccsc4)c2C3)cn1` was 212 to 216 °C. Compound `COC(=O)c1cc(C)c(C(=O)OC)c(OC)c1` returned a melting point of 98 to 99 °C. In turn, `O=C(O)[C@@H]1CC2(CN1C(=O)OCc1ccccc1)OCCO2` registered a melting point of 179 to 180 °C. As for `Cc1nccn1-c1nc(-c2ccc(Cl)cc2)c(CCCC(=O)NCCCl)o1`, the melting point lay in the range of 131 to 132 °C.

With `Nc1cc(=O)n(Cc2ccccc2[N+](=O)[O-])[nH]1`, the melting point was found to be 190 °C. Take `COc1ccc(CNC(=S)N2C(=O)CC(c3ccc(OC)c(OC4CCCC4)c3)N2C)cc1` (stereo not drawn): the melting point lay within 52 to 55 °C.

With `CNc1nc(NC)nc(-c2ccc(-c3ccccc3)cc2)n1`, the melting point is 198 to 200 °C. On to `Cc1ccc(C(O)CN2CCNC2=S)cc1` (stereo not drawn), for which the melting point worked out at 123 °C. Turning to `COCOc1ccc(CCCOc2nn(Cc3ccccc3)cc2CC(=O)O)c(Oc2ncc(C(F)(F)F)cc2Cl)c1`, the melting point lay within 108 to 109 °C. `CC(C)(C#N)c1ccc(OCc2ccccc2)cc1`: the melting point lay within 63 to 64 °C.

In the case of `COC1CC(OC)(OC)C(=O)N1` (stereo not drawn), the melting point turned out to be 86 °C. For `COc1cc(Nc2nccc(-c3ccc(N4CCNCC4)nc3)n2)cc(OC)c1OC`, the melting point was determined as 103 °C.

`CCCCCCCCCN(O)C(=O)N(C)C` gave a melting point of 39 to 40 °C. The value for `O=C(O)CN1C(=O)C(=O)N(Cc2cccc([N+](=O)[O-])c2)C1=S` was 188 °C; that for `CC(=O)NC1CCCCc2sccc21` (stereo not drawn) was 179 to 180 °C; that for `CC(Cc1nc(-c2ccccc2)nc2ccccc12)C(=O)O` (stereo not drawn) was 180 °C.

Turning to `O=Cc1ccc(OCc2ccccc2)c([N+](=O)[O-])c1`, the melting point fell in the range of 100 to 102 °C.

`Cc1cc(Oc2csc(C(F)(F)F)c2)nc(-c2ccc(C(F)(F)F)cc2)n1` yielded a melting point of 83.5 to 85 °C. With `N=c1sc2cc(OC(F)(F)F)ccc2n1CCSc1ccncc1`, the melting point came out at 143 °C.

On to `OC(c1ccc(F)cc1)(c1ccc(F)cc1)C1SCSCS1`, for which the melting point lay within 124 to 125 °C. `C=CCC1(C(=O)NCCC)c2ccccc2CCc2ccccc21` yielded a melting point of 76 to 79 °C. The value for `CCC(C)(Cc1c[nH]c2ccc(F)cc12)[N+](=O)[O-]` (stereo not drawn) was 71 to 72 °C; that for `CCOC(=O)c1ncc(Cn2c(NC3CCN(C(=O)OCC)CC3)nc3ccccc32)o1` was 132 °C; that for `CCn1c(COC(N)=O)nc(C(C)C)c1Sc1cc(C#N)cc(C#N)c1` was 174 to 175 °C. The compound `COCc1ncc(Nc2ccc(Cl)cc2)nc1-n1nc(C)cc1C` yielded a melting point of 147 to 151 °C.

As for `CCOC(=O)C=Cc1ccc(CCNS(=O)(=O)CCc2ccccc2)cc1`, the melting point lay in the range of 98 to 99 °C. In the case of `O=C(O)CCCCCCc1cc(-c2ccccc2)c2ccccc2n1`, the melting point is 39 °C.

On to `Cc1ccc(S(=O)(=O)OC[C@H]2CCC[C@H](OCc3c(Cl)cccc3Cl)O2)cc1` (relative stereo), for which the melting point is 123 to 124 °C. In turn, `Clc1nc(Oc2ccccc2)nc(Oc2ccccc2)n1` displayed a melting point of 119 to 121 °C. `CC(=O)c1c(C)oc(C)c1C(C)=O` registered a melting point of 75 to 77 °C. As for `COc1cc(C=O)c2c(c1OC)OCC=C2`, the figure is 82 to 82.5 °C; as for `COc1ccc(Cn2cccc2C(=O)CC(=O)C(=O)O)cc1`, 167 to 168 °C.

As a reminder, the melting point is the temperature of the solid-liquid transition.

(Values after a melting point compilation (Tetko et al.; mined from patent text by program, amines drawn as free bases though some values may be those of a salt).)
